Results on six compounds are retold here after ChEMBL document CHEMBL3991601, “The target landscape of clinical kinase drugs” (Science, 2017).

As usually defined, the Kd is the concentration at which binding is half-saturated.

Assay [1] addresses Atypical kinase COQ8A, mitochondrial (Homo sapiens, UniProt Q8NI60).
For assay [2], the target named is T1, ATP-dependent RNA helicase DDX1 (Homo sapiens, UniProt Q92499).
T1 sequence (Q92499 whole entry): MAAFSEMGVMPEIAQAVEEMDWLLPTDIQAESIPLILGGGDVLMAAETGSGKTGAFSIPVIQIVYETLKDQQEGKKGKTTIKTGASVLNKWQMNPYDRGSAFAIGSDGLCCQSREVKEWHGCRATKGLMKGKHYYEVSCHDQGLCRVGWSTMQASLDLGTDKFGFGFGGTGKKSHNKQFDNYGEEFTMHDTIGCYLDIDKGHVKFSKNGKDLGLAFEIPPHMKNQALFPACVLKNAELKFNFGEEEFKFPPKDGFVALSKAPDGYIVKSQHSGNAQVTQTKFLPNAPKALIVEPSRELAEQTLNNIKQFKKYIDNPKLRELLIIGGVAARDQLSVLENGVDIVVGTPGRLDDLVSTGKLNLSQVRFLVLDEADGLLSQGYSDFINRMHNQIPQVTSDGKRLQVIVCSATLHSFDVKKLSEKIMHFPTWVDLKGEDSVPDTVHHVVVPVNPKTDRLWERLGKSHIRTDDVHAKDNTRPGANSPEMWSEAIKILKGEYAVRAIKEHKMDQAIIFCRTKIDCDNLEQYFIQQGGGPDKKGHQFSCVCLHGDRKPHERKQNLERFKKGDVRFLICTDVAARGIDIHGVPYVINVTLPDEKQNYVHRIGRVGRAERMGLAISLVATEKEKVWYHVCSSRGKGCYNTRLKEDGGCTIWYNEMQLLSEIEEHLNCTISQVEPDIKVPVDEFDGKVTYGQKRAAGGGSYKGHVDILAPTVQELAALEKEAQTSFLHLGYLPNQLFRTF

The target in assay [3] is Serine/threonine-protein kinase/endoribonuclease IRE2 (Homo sapiens, UniProt Q76MJ5).
The target in assay [4] is LIM domain kinase 1 (Homo sapiens, UniProt P53667).
Assay [5] concerns the target Obg-like ATPase 1 (Homo sapiens, UniProt Q9NTK5).
Assay [6] has as its target Serine/threonine-protein kinase PAK 2 (Homo sapiens, UniProt Q13177).
Assay [7] deals with T2, Structural maintenance of chromosomes protein 1A (Homo sapiens, UniProt Q14683).
T2 sequence (Q14683 whole entry): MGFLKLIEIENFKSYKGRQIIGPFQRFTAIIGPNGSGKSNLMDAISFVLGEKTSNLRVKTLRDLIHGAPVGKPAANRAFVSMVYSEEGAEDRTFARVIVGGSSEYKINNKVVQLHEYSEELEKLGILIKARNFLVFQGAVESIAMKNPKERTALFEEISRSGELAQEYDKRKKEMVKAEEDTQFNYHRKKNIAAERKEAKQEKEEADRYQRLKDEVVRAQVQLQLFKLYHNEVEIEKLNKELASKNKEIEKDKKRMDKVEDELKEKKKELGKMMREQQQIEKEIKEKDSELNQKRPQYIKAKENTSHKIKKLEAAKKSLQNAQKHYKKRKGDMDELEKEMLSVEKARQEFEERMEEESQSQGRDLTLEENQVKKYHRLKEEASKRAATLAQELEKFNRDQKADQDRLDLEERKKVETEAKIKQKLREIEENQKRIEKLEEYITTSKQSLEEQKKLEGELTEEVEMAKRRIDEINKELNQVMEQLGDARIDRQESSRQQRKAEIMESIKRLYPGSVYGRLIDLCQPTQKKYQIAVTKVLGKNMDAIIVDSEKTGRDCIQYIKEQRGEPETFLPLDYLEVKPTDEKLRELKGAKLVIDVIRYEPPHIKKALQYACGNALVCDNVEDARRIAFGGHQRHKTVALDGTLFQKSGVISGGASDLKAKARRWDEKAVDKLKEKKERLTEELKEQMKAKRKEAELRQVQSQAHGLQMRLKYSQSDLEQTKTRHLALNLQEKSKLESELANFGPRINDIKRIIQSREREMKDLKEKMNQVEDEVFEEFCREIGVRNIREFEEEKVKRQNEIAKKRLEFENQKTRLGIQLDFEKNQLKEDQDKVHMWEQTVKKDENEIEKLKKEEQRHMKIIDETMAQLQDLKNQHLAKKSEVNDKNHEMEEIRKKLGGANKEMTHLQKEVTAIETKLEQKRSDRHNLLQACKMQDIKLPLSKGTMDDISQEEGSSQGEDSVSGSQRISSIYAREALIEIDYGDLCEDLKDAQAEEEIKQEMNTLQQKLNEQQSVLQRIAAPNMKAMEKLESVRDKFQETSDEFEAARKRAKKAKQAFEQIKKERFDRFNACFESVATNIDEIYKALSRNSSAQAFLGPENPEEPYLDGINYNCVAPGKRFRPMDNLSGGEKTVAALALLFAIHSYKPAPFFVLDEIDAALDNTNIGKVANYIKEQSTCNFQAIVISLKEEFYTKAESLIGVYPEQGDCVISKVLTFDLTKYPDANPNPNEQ

In assay [8] the target is T3, Non-receptor tyrosine-protein kinase TNK1 (Homo sapiens, UniProt Q13470).
T3 sequence (Q13470 whole entry): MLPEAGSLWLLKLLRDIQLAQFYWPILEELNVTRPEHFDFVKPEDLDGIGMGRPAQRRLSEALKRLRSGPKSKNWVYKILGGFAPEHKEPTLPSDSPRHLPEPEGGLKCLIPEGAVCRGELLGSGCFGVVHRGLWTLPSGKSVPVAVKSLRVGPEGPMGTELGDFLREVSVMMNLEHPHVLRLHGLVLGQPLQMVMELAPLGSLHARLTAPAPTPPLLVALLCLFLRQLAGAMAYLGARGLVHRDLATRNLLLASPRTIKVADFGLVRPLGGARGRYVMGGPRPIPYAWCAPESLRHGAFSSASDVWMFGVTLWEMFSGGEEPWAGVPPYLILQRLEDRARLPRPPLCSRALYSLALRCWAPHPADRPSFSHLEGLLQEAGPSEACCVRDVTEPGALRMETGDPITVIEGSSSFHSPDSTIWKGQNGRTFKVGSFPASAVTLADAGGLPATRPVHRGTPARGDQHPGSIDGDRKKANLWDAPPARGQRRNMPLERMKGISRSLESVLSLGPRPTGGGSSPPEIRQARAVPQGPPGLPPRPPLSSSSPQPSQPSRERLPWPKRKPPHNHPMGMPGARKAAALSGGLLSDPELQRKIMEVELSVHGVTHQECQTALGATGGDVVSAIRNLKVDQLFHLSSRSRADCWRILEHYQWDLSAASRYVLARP

The structures appear in SMILES notation. Active and inactive are the calls of the source.
Also: in the data inactive means no Kd found up to 30 µM.

Sequence of Atypical kinase COQ8A, mitochondrial (Q8NI60 whole entry): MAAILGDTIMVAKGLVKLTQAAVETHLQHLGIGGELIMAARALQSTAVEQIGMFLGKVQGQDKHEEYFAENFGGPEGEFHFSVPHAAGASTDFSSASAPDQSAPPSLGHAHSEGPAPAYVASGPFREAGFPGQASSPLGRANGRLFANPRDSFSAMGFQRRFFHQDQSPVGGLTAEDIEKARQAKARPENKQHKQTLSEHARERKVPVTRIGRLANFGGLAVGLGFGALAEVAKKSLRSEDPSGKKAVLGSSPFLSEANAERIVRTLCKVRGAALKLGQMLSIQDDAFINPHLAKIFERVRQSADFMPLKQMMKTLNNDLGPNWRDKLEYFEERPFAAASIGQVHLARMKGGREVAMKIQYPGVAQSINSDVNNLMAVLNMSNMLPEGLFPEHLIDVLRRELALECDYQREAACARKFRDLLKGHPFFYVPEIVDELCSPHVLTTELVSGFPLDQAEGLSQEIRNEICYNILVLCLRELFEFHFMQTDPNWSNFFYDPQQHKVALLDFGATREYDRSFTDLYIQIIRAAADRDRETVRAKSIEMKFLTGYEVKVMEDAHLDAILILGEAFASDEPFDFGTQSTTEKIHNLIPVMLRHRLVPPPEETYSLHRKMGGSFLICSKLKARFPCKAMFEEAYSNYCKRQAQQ
Sequence of Serine/threonine-protein kinase PAK 2 (Q13177 whole entry): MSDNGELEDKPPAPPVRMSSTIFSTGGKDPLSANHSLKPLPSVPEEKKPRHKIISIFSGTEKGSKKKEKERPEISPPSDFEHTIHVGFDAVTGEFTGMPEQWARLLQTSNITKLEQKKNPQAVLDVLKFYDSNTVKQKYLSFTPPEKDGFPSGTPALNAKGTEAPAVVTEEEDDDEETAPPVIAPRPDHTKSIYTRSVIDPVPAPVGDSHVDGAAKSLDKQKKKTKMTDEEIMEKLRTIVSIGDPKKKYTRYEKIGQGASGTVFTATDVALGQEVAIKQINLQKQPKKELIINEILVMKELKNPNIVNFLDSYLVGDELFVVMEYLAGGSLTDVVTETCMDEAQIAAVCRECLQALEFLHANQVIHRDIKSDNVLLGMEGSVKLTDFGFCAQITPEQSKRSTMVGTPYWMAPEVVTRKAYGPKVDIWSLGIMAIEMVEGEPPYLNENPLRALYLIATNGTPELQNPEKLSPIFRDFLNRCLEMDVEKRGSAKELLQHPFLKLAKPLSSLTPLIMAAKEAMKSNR
Sequence of LIM domain kinase 1 (P53667 whole entry, the tested form may be a part): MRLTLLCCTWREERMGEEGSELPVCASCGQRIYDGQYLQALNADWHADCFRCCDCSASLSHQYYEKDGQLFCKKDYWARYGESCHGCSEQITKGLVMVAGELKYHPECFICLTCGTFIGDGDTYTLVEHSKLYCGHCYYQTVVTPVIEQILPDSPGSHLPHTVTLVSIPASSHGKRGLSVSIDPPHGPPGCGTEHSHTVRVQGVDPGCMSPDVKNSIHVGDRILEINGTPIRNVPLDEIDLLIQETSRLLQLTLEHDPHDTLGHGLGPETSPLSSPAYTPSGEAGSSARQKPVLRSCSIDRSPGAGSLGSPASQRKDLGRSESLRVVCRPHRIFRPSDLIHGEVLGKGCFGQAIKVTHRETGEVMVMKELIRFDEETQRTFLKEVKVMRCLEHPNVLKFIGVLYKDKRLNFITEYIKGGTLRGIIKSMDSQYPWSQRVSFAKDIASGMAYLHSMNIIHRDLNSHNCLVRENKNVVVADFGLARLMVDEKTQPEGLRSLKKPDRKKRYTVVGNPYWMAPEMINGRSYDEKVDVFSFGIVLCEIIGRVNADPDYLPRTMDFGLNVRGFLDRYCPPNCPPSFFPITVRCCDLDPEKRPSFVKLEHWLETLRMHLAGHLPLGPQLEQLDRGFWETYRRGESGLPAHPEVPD
Sequence of Obg-like ATPase 1 (Q9NTK5 whole entry, looked up): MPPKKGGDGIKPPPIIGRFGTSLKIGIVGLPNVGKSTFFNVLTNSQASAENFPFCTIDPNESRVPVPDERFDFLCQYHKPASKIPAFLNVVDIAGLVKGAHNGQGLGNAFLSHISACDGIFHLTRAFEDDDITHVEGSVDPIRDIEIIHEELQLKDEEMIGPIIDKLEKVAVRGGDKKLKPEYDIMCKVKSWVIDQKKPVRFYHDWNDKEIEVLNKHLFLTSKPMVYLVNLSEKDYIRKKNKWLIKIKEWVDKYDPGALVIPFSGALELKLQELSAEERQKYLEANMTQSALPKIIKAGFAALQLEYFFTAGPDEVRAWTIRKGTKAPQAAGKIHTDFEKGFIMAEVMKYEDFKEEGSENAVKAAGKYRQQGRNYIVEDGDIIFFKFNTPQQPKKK
Sequence of Serine/threonine-protein kinase/endoribonuclease IRE2 (Q76MJ5 whole entry, the tested form may be a part): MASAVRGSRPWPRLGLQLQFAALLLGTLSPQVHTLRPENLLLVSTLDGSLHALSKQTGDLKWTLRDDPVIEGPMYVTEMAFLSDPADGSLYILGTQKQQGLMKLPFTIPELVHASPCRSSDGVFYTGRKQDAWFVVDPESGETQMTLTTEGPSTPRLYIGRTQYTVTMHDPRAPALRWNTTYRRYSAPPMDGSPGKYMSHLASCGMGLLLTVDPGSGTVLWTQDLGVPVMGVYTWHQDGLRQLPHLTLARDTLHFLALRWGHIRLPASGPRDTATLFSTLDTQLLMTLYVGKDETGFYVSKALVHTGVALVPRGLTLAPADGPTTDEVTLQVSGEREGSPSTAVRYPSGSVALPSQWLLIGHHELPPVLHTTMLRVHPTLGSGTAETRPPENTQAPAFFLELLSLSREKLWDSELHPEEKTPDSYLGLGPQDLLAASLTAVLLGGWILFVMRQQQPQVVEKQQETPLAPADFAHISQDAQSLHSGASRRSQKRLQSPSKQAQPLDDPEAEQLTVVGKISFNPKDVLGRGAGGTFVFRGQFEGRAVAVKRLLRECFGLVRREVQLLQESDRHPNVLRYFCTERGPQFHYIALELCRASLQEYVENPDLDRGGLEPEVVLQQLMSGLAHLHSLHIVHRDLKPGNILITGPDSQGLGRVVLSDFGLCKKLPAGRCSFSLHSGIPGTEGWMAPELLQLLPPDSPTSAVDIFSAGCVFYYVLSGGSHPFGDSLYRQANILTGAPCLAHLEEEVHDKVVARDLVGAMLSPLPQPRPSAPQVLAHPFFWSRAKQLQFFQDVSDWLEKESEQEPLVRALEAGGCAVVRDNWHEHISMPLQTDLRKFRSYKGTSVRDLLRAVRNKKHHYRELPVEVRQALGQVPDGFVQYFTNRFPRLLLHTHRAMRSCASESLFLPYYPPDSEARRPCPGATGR

With `COc1cc2c(Nc3ccc(Cl)c(Cl)c3F)ncnc2cc1OC[C@@H]1C[C@@H]2CN(C)C[C@@H]2C1` [TESEVATINIB], the Kd in assay [1], in assay [2], in assay [3], in assay [4], in assay [5] and in assay [6] was > 30 µM (inactive) throughout. Besides, the Kd in assay [7] and in assay [8] was > 30 µM (inactive) in each case.
In the case of `O=C(Cc1ccc(-c2ccc(OCCN3CCOCC3)cc2)cn1)NCc1ccccc1` [TIRBANIBULIN], the Kd in assay [1], in assay [2], in assay [3], in assay [4], in assay [5] and in assay [6] was > 30 µM (inactive) in each case. In addition, the Kd in assay [7] and in assay [8] was > 30 µM (inactive) each time.
Consider `O=C1NC(=O)[C@@H](c2cn3c4c(cccc24)CCC3)[C@@H]1c1c[nH]c2ccccc12` [TIVANTINIB], for which the Kd in assay [1], in assay [2], in assay [3], in assay [4], in assay [5] and in assay [6] was > 30 µM (inactive) throughout. Besides, the Kd in assay [7] and in assay [8] was > 30 µM (inactive) in each case.
Turning to `C[C@@H](NC(=O)c1ncnc(N)c1Cl)c1ncc(C(=O)Nc2cc(C(F)(F)F)c(Cl)cn2)s1` [TOVORAFENIB], the Kd in assay [1] was > 30 µM (inactive); in assay [2], > 30 µM (inactive); in assay [3], > 30 µM (inactive); in assay [4], 1.02 µM (active); in assay [5], > 30 µM (inactive); in assay [6] it was > 30 µM (inactive). Besides, the Kd in assay [7] and in assay [8] was > 30 µM (inactive) each time.
Take `Cc1cc(Nc2ncnc3ccc(NC4=NC(C)(C)CO4)cc23)ccc1Oc1ccn2ncnc2c1` [TUCATINIB]: the Kd in assay [1], in assay [2], in assay [3], in assay [4], in assay [5] and in assay [6] was > 30 µM (inactive) throughout. Also, the Kd in assay [7] and in assay [8] was > 30 µM (inactive) in each case.
Take `C[C@@H](N)c1ccc(C(=O)Nc2ccnc3[nH]ccc23)cc1` [Y-39983]: the Kd in assay [1], in assay [2], in assay [3], in assay [4], in assay [5] and in assay [6] was > 30 µM (inactive) each time. The Kd in assay [7] and in assay [8] was > 30 µM (inactive) throughout.
